Among the data in PubChem BioAssay (NCI) are TGI and GI50 values, retold here.

Assay in all cases: NCI-60 cell line screen, 48 h
Test [1] deals with CCRF-CEM leukemia.
The test system of test [2] is NCI-H226 lung.
For test [3], the system named is TK-10 renal.
In test [4] the test system is SNB-19 CNS.
The subject of test [5] is A498 renal.
For test [6], the system named is SNB-75 CNS.
For test [7], the system named is OVCAR-8 ovarian.
Test [8] deals with SN12C renal.
Test [9] deals with SF-539 CNS.
Test [10] has as its system NCI-H23 lung.

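Interpolation was linear, between the two tested concentrations surrounding the appropriate level; five concentrations were tested over 48 hours in 96-well plates. Abbreviation: GI50, concentration required for 50% inhibition of growth. TGI: concentration producing complete growth inhibition.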

`CC(=O)OC1C(O[C@H]2CC[C@]34O[C@]35CC[C@]3(C)C(C6(C)CC[C@@H](C(C)(C)O)O6)[C@@H](O)CC3(C)[C@@H]5CC(OC3OC(CO)C(O)C(O)C3O)C4C2(C)C)OCC(O)C1O` (some centres not stated): the TGI is above 31.6 µM in test [1]; above 100 µM in [2]; above 100 µM in [3]; above 100 µM in [4]; above 100 µM in [5]; above 100 µM in [6]. For the same compound, the TGI in test [7] is above 100 µM; in test [8] it was above 100 µM; in test [9], above 56.6 µM; in test [10], above 100 µM.
For `N#C/C(=C\c1ccccc1)C(NO)Nc1ccccc1` (configuration not stated), the TGI in test [1], in [2], in test [3], in test [4], in [5] and in test [6] was above 100 µM each time. The TGI in test [7], in test [8], in test [9] and in test [10] was above 100 µM throughout.
In the case of `CCn1c(=N)sc2nc3ccccc3n2c1=O`, the TGI in test [1], in test [2], in test [3], in test [4], in test [5] and in [6] was above 100 µM in each case. The TGI in test [7], in test [8], in [9] and in test [10] was above 100 µM each time.
Regarding `CCN(CC)c1ccc2nc3ccc(N=Nc4ccc(O)cc4)cc3[n+](-c3ccccc3)c2c1`, the GI50 in test [2] is 11.4 µM; in test [3], 3.15 µM; in [4] it was 11 µM; in test [5] it was above 100 µM; in test [6], 10 µM; in test [7], 7.42 µM. Besides, the GI50 in [8] was 10.7 µM; in test [9], 13.3 µM; in test [10], 3.75 µM. The TGI in test [2] is 23.6 µM; in test [3], above 100 µM; in test [4], 22.9 µM; in test [5], above 100 µM; in test [6], 21.9 µM; in [7] it was above 100 µM. Further, the TGI in test [8] was determined as 36.7 µM; in test [9] it was 91.2 µM; in test [10], 40.3 µM.
Regarding `Clc1ccc(OCc2nnc3n2N=C(c2ccccc2)CS3)c(Cl)c1`, the TGI in test [1] was above 100 µM; in test [2] it was above 100 µM; in [3], above 100 µM; in [4] it was above 100 µM; in [5] it was 76.8 µM; in [6], 19.6 µM. The figures for the TGI in test [7], in [9] and in test [10] were above 100 µM, 91.1 µM and above 100 µM, respectively.
On to `Cc1nc(Sc2nc3ccc([N+](=O)[O-])cc3s2)sc1C`, for which the GI50 in test [1] was 0.477 µM; in [2], 1.07 µM; in test [3], 2.05 µM; in test [4] it was 8.41 µM; in [5], 1.59 µM; in [6] it was 2.48 µM. Besides, the GI50 in [7] is 1.79 µM; in [8], 1.74 µM; in [10], 1.03 µM. Besides, the TGI was determined as 6.18 µM in test [1]; 2.84 µM in test [2]; 7.87 µM in test [3]; 21.9 µM in [4]; 9.23 µM in test [5]; 12.3 µM in [6]. For the same compound, the TGI in test [7] was 7.12 µM; in [8] it was 6.04 µM; in test [10], 4.44 µM.
Take `O=C1Nc2ccccc2/C1=C/c1cn(CC(O)Cn2cc(/C=C3\C(=O)Nc4ccccc43)c3ccccc32)c2ccccc12` (configuration not stated): the GI50 in test [1] is 2.84 µM; in [2] it was 1.68 µM; in [3], 2.68 µM; in [4], 1.21 µM; in test [5], 2.18 µM; in test [6], 1.33 µM. For the same compound, the values for the GI50 in test [8], in [9] and in [10] were 1.52 µM, 1.55 µM and 1.57 µM, respectively. For the same compound, the TGI in test [1] is 13.4 µM; in [2] it was 3.55 µM; in test [3] it was 5.46 µM; in [4] it was 3.82 µM; in [5] it was 4.08 µM; in test [6], 2.92 µM. The TGI was determined as 3.16 µM in test [8], 3.11 µM in test [9] and 3.36 µM in [10].
`COc1cc(CN(c2ccc(C)cc2)C2OC(=O)c3ccccc32)cc(OC)c1OC` (configuration not stated): the GI50 in test [1] was 0.375 µM; in test [2], 0.507 µM; in test [3] it was 2.51 µM; in test [4], 0.689 µM; in test [5] it was 0.361 µM; in test [6], 0.285 µM. Also, the GI50 was 0.854 µM in test [8], 0.393 µM in test [9] and 0.427 µM in test [10]. Further, the TGI in test [1] is above 100 µM; in test [2], above 19.7 µM; in test [3] it was above 100 µM; in test [4], above 100 µM; in test [5], 4.52 µM; in [6] it was above 100 µM. The TGI in test [8] and in test [9] was above 100 µM each time.
For the compound `CCOC(=O)C1=C(C(=O)OCC)C2(c3ccccc3)N(O1)c1ccccc1C2(C)C` (configuration not stated), the TGI is above 100 µM in test [1]; above 100 µM in [2]; above 100 µM in test [3]; above 100 µM in test [4]; above 100 µM in test [5]; 89.5 µM in test [6]. Besides, the TGI in [7], in test [9] and in test [10] was above 100 µM in each case.
Regarding `COc1cc(-c2nccc3cc4c(cc23)OCO4)cc(OC)c1OC`, the GI50 in [2] was 16.4 µM; in test [3] it was 5.64 µM; in test [4] it was 7.34 µM; in test [5], 2.55 µM; in test [6], 2.45 µM; in [7], 7.08 µM. Further, the GI50 was 7.64 µM in test [8], 3.31 µM in test [9] and 4.73 µM in test [10]. Besides, the TGI was above 100 µM in test [2]; above 100 µM in test [3]; above 100 µM in test [4]; 15.2 µM in test [5]; 79.7 µM in [6]; above 100 µM in [7]. In addition, the figures for the TGI in test [8], in test [9] and in [10] were above 100 µM, 44.1 µM and above 100 µM, respectively.
